Assay: Arterial blood sampling and radiometabolite analysis after i.v. [^18F]UCB-H
Format: in vivo, cynomolgus monkeys (Macaca fascicularis)
Conditions: for intact parent fraction: arterial blood
Experimental: All four non-human primates (NHP) underwent a 2-h (2 h) test and retest PET scan; two NHP underwent an additional 4-h (4 h) retest PET scan. Three NHP underwent one 4-h (4 h) displacement PET scan. Arterial blood sampling was performed during test and retest scans with PET imaging spaced by at least 3 weeks between each scan. To this end, the femoral artery opposite to the saphenous vein used for radioligand injection was cannulated. For the 2-h (2 h) scans, we collected in total 28 blood samples of 1 mL: 16 samples during the first 5 min followed by […] every 5 min and […] every 10 min. For the 4 h scans, we collected an additional 6 samples every 20 min during the last two hours (34 samples in total). Larger samples (2 – 3 mL) were collected at 5, 15, 30, 60, 90, 120 min (2 h) and at 180, 240 min (4 h) for metabolite analysis. Displacement of [^18F]UCB-H was done by intravenous (IV) administration 90 min after [^18F]UCB-H injection of a bolus of 30 mg/kg LEV, or of 80 µg/kg (≈250 nmol/kg) or 5 mg/kg (≈15 µmol/kg) of cold [^19F]-UCB-H. Full experimental design of all NHP is outlined in Additional file 1: Table 1.
Plasma was separated from whole-blood by centrifugation (5 min, 2054xg, 4 °C) and 50 µL of plasma and whole-blood were counted using a PET cross-calibrated gamma well counter (WIZARD^2, PerkinElmer, France) to obtain the whole-blood and plasma activity curves. All data were corrected for radioactive decay from the injection time. For the larger blood samples, 500 µL plasma was deproteinized with acetonitrile. The supernatant was injected in high-performance liquid chromatography, equipped with an Atlantis® T3 5 μm 4.6 × 150 mm column (Waters) and an Atlantis® T3 5 μm 3.9 × 5 mm pre-column (Waters), with an LB-513 radioactivity flow detector (Berthold, La Garenne Colombes, France, MX Z100 cell). The eluant was collected in intervals of 15 s (fraction collector III, Waters, France) and counted in the gamma well counter (WIZARD^2, PerkinElmer, France) to measure total activity. [^18F]UCB-H parent fraction was calculated as a percentage of the total radioactivity (metabolites and parent).
For each animal, a 2-exponential decay function was fitted to [^18F]UCB-H parent fraction, which was time multiplied with the plasma activity curve to obtain the metabolite-corrected arterial plasma input function (mcAIF) used for the kinetic modeling.

intact parent fraction (15 min after tracer injection): 37 ± 3.9%
intact parent fraction (30 min after tracer injection): 29.5 ± 3.4%
intact parent fraction (60 min after tracer injection): 19 ± 3.5%
intact parent fraction (120 min after tracer injection): 14.6 ± 1.9%
intact parent fraction (240 min after tracer injection): 4.4 ± 0.7%
plasma to whole-blood ratio (over the entire 120-min acquisition period): 0.90 ± 0.05
Compound: O=C1C[C@H](c2cc(F)c(F)c(F)c2)CN1Cc1ccncc1[18F] [[^18F]UCB-H]

Reference: PMC8026785, “The pharmacokinetics of [^18F]UCB-H revisited in the healthy non-human primate brain” (EJNMMI Research, 2021)
